Test results reported in patent publication US10640527B2, “Mesitylene-cored amphiphiles and uses thereof” (Industry-University Cooperation Foundation Hanyang …, priority 2016, dated 2020).

Legend:
[1] = Water-solubility; type: physicochemical; conditions: in water
[2] = target: T1, melibiose permease (MelBSt) (Salmonella typhimurium, UniProt P30878); test: MelBSt extraction from membranes and thermal stability, SDS-PAGE and Western blotting; type: biochemical; conditions: 1.5 wt %, 90 minutes; for MelBSt protein extraction efficiency compared with DDM: 45° C.; for MelBSt extraction ability compared with DDM: 55° C.
T1 construct: made in house; host or cells: DW2 cells (ΔmelB and ΔlacZY), Salmonella typhimurium DW2
Protocol: An experiment for measuring the structural stability of Salmonella typhimurium melibiose permease (MelBSt) according to MGAs in an aqueous solution was performed. After MelBSt proteins were extracted from a membrane using MGAs or DDM, the amount and structure of extracted proteins were analyzed by SDS-PAGE and western blotting. The concentration of used amphiphiles was 1.5 wt %, and proteins were extracted at four different temperatures of 0, 45, 55 and 65° C. to evaluate both the protein extraction efficiency and stabilizing ability of a compound. A membrane sample which had not been treated with MGAs or DDM was used as a control group.
Specifically, MelBSt stability solubilized in DDM or MGAs was evaluated according to a method described in 2010 in a research article (P. S. Chae et al., Nat. Methods 2010, 7, 1003-1008.) by the inventors of the present invention. Proteins (MelBSt) were produced using plasmid pK95ΔAHB/WT MelBSt/CH10 encoding the wild-type MelB with a 6-His tag at the C-terminus and Salmonella typhimurium DW2 cells (ΔmelB and ΔlacZY). Cell growth and membrane preparation was performed according to a method described in a research article (Nat. Commun. 2014, 5, 3009) by A. S. Ethayathulla, et al. A protein assay was carried out using a Micro BCA kit (Thermo Scientific, Rockford, Ill.). In order to measure protein solubilization, a membrane sample (final protein concentration was 10 mg/mL) containing MelBSt was incubated with a solubilization buffer (20 mM sodium phosphate, pH 7.5, 200 mM NaCl, 10% glycerol and 20 mM melibiose) and 1.5% (w/v) DDM or MGA (MGA-C10, MGA-C11, MGA-C12, MGA-C13, MGA-C14 or MGA-C15) at four different temperatures of 0, 45, 55 and 65° C. for 90 minutes. After ultracentrifugation at 355,590 g in a Beckman Optima™ MAX Ultracentrifuge using a TLA-100 rotor for 45 min at 4° C., 20 μg of a protein was separated by SDS-16% PAGE and immunoblotted with a Penta-His-HRP antibody (Qiagen, Germantown, Md.). MelBSt was measured by an ImageQuant LAS 4000 Biomolecular Imager (GE Healthcare Life Sciences) using a SuperSignal West Pico chemiluminescent substrate.

[3] = Hydrodynamic radius / size distribution of micelles by dynamic light scattering (DLS); type: physicochemical; conditions: 1.0 wt % amphiphile
Protocol: A method of measuring a radius of the micelle is not particularly limited, and those methods widely known in the related field may be used, for example, a dynamic light scattering (DLS) experiment may be used for measurement.
(§1) Specifically, a CMC was measured by a fluorophorescent encapsulation method using diphenylhexatriene (DPH) and an Rh of a micelle formed by each formulation (1.0 wt %) was measured using a dynamic light scattering (DLS) experiment.

[4] = Critical micelle concentration by fluorophore encapsulation using diphenylhexatriene (DPH); type: physicochemical; conditions: aqueous solution
Protocol: A method of measuring a CMC is not particularly limited, and those methods widely known in the related field may be used. For example, a CMC may be measured by a fluorophore encapsulation method using diphenylhexatriene (DPH).
as §1

[5] = target: human β2-adrenergic receptor (β2AR) (Homo sapiens, UniProt P07550); test: Size exclusion chromatography (SEC) of β2AR solubilized in amphiphile
Protocol: A size exclusion chromatography (SEC) experiment was conducted to determine the β2AR crystallization effect and β2AR stability preservation effect by MGA-C13 or DDM.
Specifically, β2AR purified by 0.1% DDM was mixed with a DDM or MGA-C13 buffer (20 mM HEPES pH 7.5, 100 mM NaCl, 0.2% of each amphiphile) and incubated for 30 minutes. The sample was applied to a Superdex-200 10/300 GL column (GE Healthcare Life Sciences) at a rate of 0.5 ml/min, fluorescence was recorded at 345 nm, and an […] wavelength was 295 nm. A running buffer contained 20 mM HEPES (pH 7.5) and 100 mM NaCl, and contained each amphiphile (DDM or MGA-C13) or not.

[6] = target: T2, uric acid-xanthine/H+ symporter (UapA) (Emericella nidulans, UniProt Q07307, G411V); test: UapA structural (thermal) stability, CPM assay; type: biochemical, Aspergillus nidulans
T2 construct: GFP; made in house; host or cells: Saccharomyces cerevisiae FGY217
Protocol: An experiment for measuring the structural stability of uric acid-xanthine/H^+ symporter (UapA) solubilized in MGAs in an aqueous solution was performed. The structural stability of UapA was measured using a CPM assay, and was measured at MGAs and DDM concentrations of (a) CMC+0.04 wt %, or (b) CMC+0.2 wt %.
Specifically, a UapA protein is a uric acid-xanthine/H^+ symporter in Aspergillus nidulans. Protein stability was measured by fluorescence spectroscopy using N-[4-(7-diethylamino-4-methyl-3-coumarinyl)phenyl]maleimide (CPM) which is a sulfhydryl-specific fluorophore. A free sulfhydryl group of a cysteine residue is in the interior of a protein, but becomes accessible to a solvent upon protein unfolding. CPM becomes fluorescent by a reaction with the free thiol, and thus provides as a protein unfolding sensor. In order to measure thermal stability, first, UapAG411V1-11 was expressed in the Saccharomyces cerevisiae FGY217 strain by fusion with GFP, and separated in a sample buffer (20 mM Tris (pH 7.5), 150 mM NaCl, 0.03% DDM and 1 mM xanthine) according to a method described in a research article (Mol. Membr. Biol. 2013, 30, 32-42) by J. Leung et al. A UapA protein was concentrated to about 10 mg/ml using a 100 kDa molecular weight cut-off filter (Millipore). The concentrated protein was diluted to a ratio of 1:150 with each buffer including DDM or MGA (MGA-C10, MGA-C11, MGA-C12, MGA-C13, MGA-C14 or MGA-C15) at a concentration of CMC+0.04 wt % or CMC+0.2 wt % in a Greiner 96-well plate. A CPM dye (Invitrogen) stored in DMSO (Sigma) was diluted with a dye buffer (20 mM Tris (pH 7.5), 150 mM NaCl, 0.03% DDM and 5 mM EDTA), and 3 μl of the diluted dye was added to each protein sample. The reaction mixture was incubated at 40° C. for 120 minutes. Fluorescence emission was monitored using a microplate spectrofluorometer, with an excitation wavelength at 387 nm and an emission wavelength at 463 nm. Relative maximum fluorescence was used to calculate a percentage of relative folded protein remaining after 120 minutes at 40° C. Relative unfolded proteins were plotted against time using GraphPad Prism.
Specifically, a UapA stabilization effect was evaluated by the same method as in Experimental Example 2 using MGA-C13, MGA-C14, MNG-3 or DDM at a concentration of (a) CMC+0.04 wt % or (b) CMC+0.2 wt %.

T1 sequence (P30878 whole entry): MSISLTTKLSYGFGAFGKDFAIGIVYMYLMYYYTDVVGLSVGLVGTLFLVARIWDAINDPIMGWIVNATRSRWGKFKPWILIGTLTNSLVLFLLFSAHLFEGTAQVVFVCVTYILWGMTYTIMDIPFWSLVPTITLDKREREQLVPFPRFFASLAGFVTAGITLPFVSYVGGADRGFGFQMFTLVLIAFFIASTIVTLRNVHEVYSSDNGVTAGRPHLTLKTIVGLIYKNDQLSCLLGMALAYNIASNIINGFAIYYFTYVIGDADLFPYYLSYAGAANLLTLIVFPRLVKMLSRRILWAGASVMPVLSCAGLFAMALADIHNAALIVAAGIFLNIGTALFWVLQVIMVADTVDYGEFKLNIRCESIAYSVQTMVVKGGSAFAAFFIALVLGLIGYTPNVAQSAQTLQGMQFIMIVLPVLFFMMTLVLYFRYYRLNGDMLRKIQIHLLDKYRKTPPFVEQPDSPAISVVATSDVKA
human β2-adrenergic receptor (β2AR), sequence (P07550 whole entry): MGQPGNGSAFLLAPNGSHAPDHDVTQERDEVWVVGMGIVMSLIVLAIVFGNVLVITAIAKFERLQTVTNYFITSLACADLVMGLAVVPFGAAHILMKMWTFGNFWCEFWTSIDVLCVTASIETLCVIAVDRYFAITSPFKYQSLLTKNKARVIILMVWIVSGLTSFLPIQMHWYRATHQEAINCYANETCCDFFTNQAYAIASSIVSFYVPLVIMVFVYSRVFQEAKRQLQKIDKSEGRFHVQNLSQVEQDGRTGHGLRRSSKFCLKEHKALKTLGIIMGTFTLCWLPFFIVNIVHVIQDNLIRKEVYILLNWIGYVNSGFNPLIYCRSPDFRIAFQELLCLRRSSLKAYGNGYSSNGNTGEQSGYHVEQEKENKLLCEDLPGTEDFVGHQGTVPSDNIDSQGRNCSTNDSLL
T2 sequence (Q07307 12-574 G411V): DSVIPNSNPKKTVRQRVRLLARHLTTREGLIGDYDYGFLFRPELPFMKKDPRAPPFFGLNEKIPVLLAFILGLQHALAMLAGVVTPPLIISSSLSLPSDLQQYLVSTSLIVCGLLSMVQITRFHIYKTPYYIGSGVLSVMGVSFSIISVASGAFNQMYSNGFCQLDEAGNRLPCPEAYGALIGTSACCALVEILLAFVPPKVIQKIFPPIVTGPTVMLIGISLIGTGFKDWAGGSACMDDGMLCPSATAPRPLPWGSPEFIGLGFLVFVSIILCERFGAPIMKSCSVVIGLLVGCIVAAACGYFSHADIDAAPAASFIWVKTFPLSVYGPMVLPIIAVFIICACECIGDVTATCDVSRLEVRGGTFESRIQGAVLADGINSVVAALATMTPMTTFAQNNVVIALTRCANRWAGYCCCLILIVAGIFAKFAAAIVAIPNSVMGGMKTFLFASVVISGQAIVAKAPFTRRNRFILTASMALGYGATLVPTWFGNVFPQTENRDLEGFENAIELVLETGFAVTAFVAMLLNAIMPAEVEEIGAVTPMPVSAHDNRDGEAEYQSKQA

CCCCCCCCCCCCCCCC(CO[C@@H]1OC(CO)[C@@H](O)C(O)C1O)(CO[C@@H]1OC(CO)[C@@H](O)C(O)C1O)Cc1cc(CC(CCCCCCCCCCCCCCC)(CO[C@@H]2OC(CO)[C@@H](O)C(O)C2O)CO[C@@H]2OC(CO)[C@@H](O)C(O)C2O)cc(CC(CCCCCCCCCCCCCCC)(CO[C@@H]2OC(CO)[C@@H](O)C(O)C2O)CO[C@@H]2OC(CO)[C@@H](O)C(O)C2O)c1 (stereo partly drawn) [MGA-C15]
water-solubility [1]: ≥ 20%
MelBSt protein extraction efficiency compared with DDM [2]: same level of protein extraction efficiency as DDM
MelBSt extraction ability compared with DDM [2]: higher MelBSt extraction ability than DDM
Rh (nm), hydrodynamic radius of micelle [3]: 3.6 ± 0.02 nm
CMC [4]: ~1.5 µM
CMC (wt %) [4]: ~0.0003 wt %

CCCCCCCCCCCCCC(CO[C@@H]1OC(CO)[C@@H](O)C(O)C1O)(CO[C@@H]1OC(CO)[C@@H](O)C(O)C1O)Cc1cc(CC(CCCCCCCCCCCCC)(CO[C@@H]2OC(CO)[C@@H](O)C(O)C2O)CO[C@@H]2OC(CO)[C@@H](O)C(O)C2O)cc(CC(CCCCCCCCCCCCC)(CO[C@@H]2OC(CO)[C@@H](O)C(O)C2O)CO[C@@H]2OC(CO)[C@@H](O)C(O)C2O)c1 (stereo partly drawn) [MGA-C13]
MelBSt protein extraction efficiency compared with DDM [2]: same level of protein extraction efficiency as DDM
MelBSt extraction ability compared with DDM [2]: higher MelBSt extraction ability than DDM
size of protein-detergent complexes (PDCs) with β2AR ([5]; SEC, amphiphile-containing buffer, 0.2% amphiphile): smaller protein-detergent complexes (PDCs) than DDM
SEC profile of solubilized β2AR ([5]; amphiphile-free running buffer): almost no change
Rh (nm), hydrodynamic radius of micelle [3]: 3.2 ± 0.03 nm
CMC [4]: ~3 µM
CMC (wt %) [4]: ~0.0006 wt %
UapA stabilization effect compared with MNG-3 ([6]; CMC+0.04 wt % or CMC+0.2 wt %, FIG. 25): far greater UapA stabilization effect than MNG-3
effect in maintaining folded UapA, ranking among MGAs ([6]; CMC+0.2 wt %, 40° C., 120 minutes): had the highest effect
